For one experiment, the system named is diabetic rats. As to the kind of experiment: Erectile response to cavernosal nerve electrical stimulation in anaesthetized diabetic rats. Type of experiment: in vivo, rat. Conditions: administered alone, intravenous administration. How it is done: The in-vivo activity of the active substance combination is tested as described in the reference of Saénz Tejada et al. in International Journal of Impotence Research 2003, 15, 90-93 under “Methods—Erectile responses to cavernosal nerve stimulation in anaesthetized rats”, which is hereby incorporated by reference and forms part of the disclosure. The erectile response to cavemosal nerve electrical stimulation in anaesthetized diabetic rats was determined as described above.

The subject of experiment [1] is human penile resistance arteries. As to the kind of experiment: Effect of calcium dobesilate on relaxation induced by Ca2+-activated K+-channel activation (NS1619) in human penile arteries. Conditions: calcium dobesilate 10 μM for 30 min; norepinephrine-contracted arteries; NS1619 1 nM to 10 μM. The procedure:
(§1) Penile small arteries, […] arteries (lumen diameter 150-400 μm), which are the terminal branches of deep penile arteries, are dissected by carefully removing the adhering trabecular tissue, and arterial ring segments (2 mm long) and are subsequently mounted on two 40 μm wires on microvascular Halpern-Mulvany myographs (J. P. Trading, Aarhus, Denmark) for isometric tension recordings. The vessels are allowed to equilibrate for 30 min in physiological salt solution (PSS) of the following composition (mmol/l): NaCl 119, KCl 4.6, CaCl2 1.5, MgCl2 1.2, NaHCO3 24.9, glucose 11, KH2PO4 1.2, EDTA 0.027 at 37° C. continuously bubbled with 95% 02/5% CO2 mixture to maintain a pH of 7.4. Passive tension and internal circumference of vascular segments when relaxed in situ under a transmural pressure of 100 mmHg (L100), are determined. […] The preparations are then exposed to 125 mM K^+ (KPSS, equimolar substitution of […] in PSS) and the contractile response is measured. […] At this time, responses to NS1619 are again evaluated in NE-contracted arteries. […] Relaxation responses are expressed as percentage of total relaxation (loss in tone) induced by the addition of 0.1 mmol/l papaverine HCl to the chambers at the end of the experiment. All data are expressed as mean±standard error. […]

The test system is the same in experiment [2]. As to the kind of experiment: Effect of calcium dobesilate on relaxation induced by K(ATP)-channel activation (pinacidil) in human penile arteries. To be noted: calcium dobesilate 10 μM for 30 min; norepinephrine-contracted arteries; pinacidil 1 nM to 1 mM. The procedure: as §1, with “pinacidil” for “NS1619”

The record followed here is patent US20070032471A1, “Active substance combination comprising a 2,5-dihydroxybenzenesulfonic compound and a potassium ion channel modulator” (LABORATORIOS DEL DR. ESTEVE S.A., priority 2003, published 2007).

Take `O=c1[nH]c2cc(C(F)(F)F)ccc2n1-c1cc(C(F)(F)F)ccc1O` [NS1619, 1-[2-Hydroxy-5-(trifluoromethyl)phenyl]-5-(trifluoromethyl)-1,3-dihydro-2H-benzimidazol-2-one]: in the experiment with diabetic rats (0.3 mg/kg or 5 mg/kg), the erectile response result is recorded as “do not modify the erectile response”.

Consider `O=S(=O)(O)c1cc(O)ccc1O` [calcium dobesilate, calcium 2,5-dihydroxybenzenesulfonate], for which the erectile response result in the experiment on diabetic rats (10 mg/kg) is on record as “do not modify the erectile response”. Moreover, the “potentiation of relaxant responses induced by K(Ca) channel activation” value in experiment [1] is “strongly potentiates”. Also, the “potentiation of relaxation induced by activation of K(ATP) channels with pinacidil” value in experiment [2] is “significantly potentiates”.
